These are literature values, as cited in patent US20200147194A1, “PEPTIDE VACCINE AND PEPTIDE VACCINE COMPOSITION FOR CRANIAL NERVE DISEASE” (KEIO UNIVERSITY, priority 2017, published 2020).

This data set has as its system pre-alteration peptides (SEQ ID NO:12).

As for “SEQ ID NO:16: SEQ ID NO:12 with leucine substituted for the second amino acid from the N-terminus; HLA-A*02:01-binding, VEGFR-2 (VLAMFFWLL; modified peptide)”, the “CTLs induced by stimulation by the peptide: recognition of pre-alteration peptides (SEQ ID NO:12)” value was “able recognize and damage”.
